Values of other authors in patent US4377591A, “7-Oxo-1-azabicyclo[3.2.0]hept-2-ene-2-carboxylic acid derivatives, their use and preparation” (Sankyo Company, Limited, priority 1980, dated 1983).

Test system: bacteria
Details: Japanese Patent Application Kokai No. 73191/76

## C[C@@H](O)[C@H]1C(=O)N2C(C(=O)O)=C(SCCN)C[C@H]12 [thienamycin, (5R,6S)-3-(2-aminoethylthio)-6-[1-(R)-hydroxyethyl]-7-oxo-1-azabicyclo[3.2.0]hept-2-ene-2-carboxylic acid]
  antibacterial activity (in words): extraordinarily potent antibacterial activity
